According to ChEMBL document CHEMBL1144369, “2-Ethoxybenzoxazole as a bioisosteric replacement of an ethyl benzoate group in a human rhinovirus (HRV) capsid binder” (Bioorg Med Chem Lett, 2005):
Converted amounts (≈) assume the structure as drawn. Each block holds one molecule with its values, some of them ahead of it.

What was measured:
Human rhinovirus sp. [1] = assay: Effective concentration against HRV-14; type: functional, organism-based
Human rhinovirus sp. [2] = assay: Effective concentration against HRV-2; type: functional, organism-based
Human rhinovirus sp. [3] = assay: Effective concentration against HRV serotype 51 (assay was run at least six times); type: functional, organism-based
Human rhinovirus sp. [4] = assay: Effective concentration against HRV serotype 63 (assay was run at least six times); type: functional, organism-based
Human rhinovirus sp. [5] = assay: Effective concentration against HRV serotype 70 (assay was run at least six times); type: functional, organism-based
Human rhinovirus sp. [6] = assay: Effective concentration against HRV serotype 72 (assay was run at least six times); type: functional, organism-based
Human rhinovirus sp. [7] = assay: Effective concentration against HRV serotype 85 (assay was run at least six times); type: functional, organism-based
Human rhinovirus sp. [8] = assay: Effective concentration against HRV serotype 86 (assay was run at least six times); type: functional, organism-based
Human rhinovirus sp. [9] = assay: Effective concentration against HRV serotype 89 (assay was run at least six times); type: functional, organism-based
Human rhinovirus sp. [10] = assay: Effective concentration against HRV serotype 45 (assay was run for 3 times); type: functional, organism-based
Human rhinovirus sp. [11] = assay: Median effective concentration against HRV serotypes; Number of serotypes 16; type: functional, organism-based
Human rhinovirus sp. [12] = assay: Effective concentration against HRV serotype 9 (assay was run at least six times); type: functional, organism-based
Human rhinovirus sp. [13] = assay: Effective concentration against HRV serotype 14 (assay was run at least six times); type: functional, organism-based
Human rhinovirus sp. [14] = assay: Effective concentration against HRV serotype 15 (assay was run at least six times); type: functional, organism-based
Human rhinovirus sp. [15] = assay: Effective concentration against HRV serotype 16 (assay was run at least six times); type: functional, organism-based
Human rhinovirus sp. [16] = assay: Effective concentration against HRV serotype 29 (assay was run at least six times); type: functional, organism-based
Human rhinovirus sp. [17] = assay: Effective concentration against HRV serotype 39 (assay was run at least six times); type: functional, organism-based
Human rhinovirus sp. [18] = assay: Effective concentration against HRV serotype 2 (assay was run at least six times); type: functional, organism-based
Human rhinovirus sp. [19] = assay: Effective concentration against HRV serotype 59 (assay was run at least six times); type: functional, organism-based
Human rhinovirus sp. [20] = assay: Effective concentration against HRV-16; type: functional, organism-based
Human rhinovirus sp. [21] = assay: Percent inhibition of HRV strains at a concentration of 0.064 ug/mL; no. of strains=100; type: functional
Human rhinovirus sp. [22] = assay: Effective concentration against HRV serotype 45 (assay was run at least six times); type: functional, organism-based

SMILES: CSc1nc2cc(OCCC3CCN(c4ccc(C)nn4)CC3)ccc2o1
EC50 (Human rhinovirus sp. [1]): 0.047 µg/mL (≈ 0.122 µM)
EC50 (Human rhinovirus sp. [2]): 0.099 µg/mL (≈ 0.257 µM)

SMILES: CCOc1nc2cc(OCCC3CCN(c4ccc(C)nn4)CC3)ccc2s1
EC50 (Human rhinovirus sp. [1]): 0.006 µg/mL (≈ 0.0151 µM)
EC50 (Human rhinovirus sp. [2]): 0.007 µg/mL (≈ 0.0176 µM)

SMILES: Cc1ccc(N2CCC(CCOc3ccc4oc(C)nc4c3)CC2)nn1
EC50 (Human rhinovirus sp. [1]): > 0.5 µg/mL
EC50 (Human rhinovirus sp. [2]): > 0.5 µg/mL

SMILES: CCCCc1nc2cc(OCCC3CCN(c4ccc(C)nn4)CC3)ccc2o1
EC50 (Human rhinovirus sp. [1]): 0.082 µg/mL (≈ 0.208 µM)
EC50 (Human rhinovirus sp. [2]): 0.013 µg/mL (≈ 0.033 µM)

SMILES: CCCOc1nc2cc(OCCC3CCN(c4ccc(C)nn4)CC3)ccc2o1
EC50 (Human rhinovirus sp. [1]): 0.02 µg/mL (≈ 0.0504 µM)
EC50 (Human rhinovirus sp. [2]): 0.002 µg/mL (≈ 0.00504 µM)

SMILES: CCCOc1nc2ccc(OCCC3CCN(c4ccc(C)nn4)CC3)cc2s1
EC50 (Human rhinovirus sp. [1]): 0.041 µg/mL (≈ 0.0994 µM)
EC50 (Human rhinovirus sp. [2]): 0.166 µg/mL (≈ 0.402 µM)

SMILES: CCCc1nc2cc(OCCC3CCN(c4ccc(C)nn4)CC3)ccc2o1
EC50 (Human rhinovirus sp. [1]): 0.028 µg/mL (≈ 0.0736 µM)
EC50 (Human rhinovirus sp. [2]): 0.075 µg/mL (≈ 0.197 µM)

SMILES: CCOC(=O)c1ccc(OCCC2CCN(c3ccc(C)nn3)CC2)cc1 [PIRODAVIR]
inhibition at 0.064 µg/mL (Human rhinovirus sp. [21]): 80%
EC50 (Human rhinovirus sp. [22]): > 5 µg/mL
EC50 (Human rhinovirus sp. [3]): 0.00521 µg/mL (≈ 0.0141 µM)
EC50 (Human rhinovirus sp. [4]): 0.00083 µg/mL (≈ 0.00225 µM)
EC50 (Human rhinovirus sp. [5]): 0.00214 µg/mL (≈ 0.00579 µM)
EC50 (Human rhinovirus sp. [6]): 0.0348 µg/mL (≈ 0.0941 µM)
EC50 (Human rhinovirus sp. [7]): 0.00472 µg/mL (≈ 0.0128 µM)
EC50 (Human rhinovirus sp. [8]): 0.00956 µg/mL (≈ 0.0259 µM)
EC50 (Human rhinovirus sp. [9]): 0.0057 µg/mL (≈ 0.0154 µM)
EC50 (Human rhinovirus sp. [11]): 0.00454 µg/mL (≈ 0.0123 µM)
EC50 (Human rhinovirus sp. [12]): 0.00205 µg/mL (≈ 0.00555 µM)
EC50 (Human rhinovirus sp. [13]): 0.00365 µg/mL (≈ 0.00988 µM)
EC50 (Human rhinovirus sp. [14]): 0.00792 µg/mL (≈ 0.0214 µM)
EC50 (Human rhinovirus sp. [15]): 0.0152 µg/mL (≈ 0.0412 µM)
EC50 (Human rhinovirus sp. [16]): 0.00374 µg/mL (≈ 0.0101 µM)
EC50 (Human rhinovirus sp. [17]): 0.0018 µg/mL (≈ 0.00487 µM)
EC50 (Human rhinovirus sp. [18]): 0.00277 µg/mL (≈ 0.0075 µM)
EC50 (Human rhinovirus sp. [19]): 0.00437 µg/mL (≈ 0.0118 µM)

SMILES: Cc1cc(CCCOc2c(C)cc(-c3noc(C(F)(F)F)n3)cc2C)on1 [PLECONARIL]
EC50 (Human rhinovirus sp. [22]): 1.91 µg/mL (≈ 5 µM)
EC50 (Human rhinovirus sp. [3]): 0.0304 µg/mL (≈ 0.0797 µM)
EC50 (Human rhinovirus sp. [4]): 0.0623 µg/mL (≈ 0.163 µM)
EC50 (Human rhinovirus sp. [5]): 0.0539 µg/mL (≈ 0.141 µM)
EC50 (Human rhinovirus sp. [6]): 0.469 µg/mL (≈ 1.23 µM)
EC50 (Human rhinovirus sp. [7]): 0.034 µg/mL (≈ 0.0892 µM)
EC50 (Human rhinovirus sp. [8]): 0.07 µg/mL (≈ 0.184 µM)
EC50 (Human rhinovirus sp. [9]): 0.0293 µg/mL (≈ 0.0769 µM)
EC50 (Human rhinovirus sp. [11]): 0.0496 µg/mL (≈ 0.13 µM)
EC50 (Human rhinovirus sp. [12]): 0.0372 µg/mL (≈ 0.0974 µM)
EC50 (Human rhinovirus sp. [13]): 0.0343 µg/mL (≈ 0.09 µM)
EC50 (Human rhinovirus sp. [14]): 0.0698 µg/mL (≈ 0.183 µM)
EC50 (Human rhinovirus sp. [15]): 0.108 µg/mL (≈ 0.283 µM)
EC50 (Human rhinovirus sp. [16]): 0.0454 µg/mL (≈ 0.119 µM)
EC50 (Human rhinovirus sp. [17]): 0.0449 µg/mL (≈ 0.118 µM)
EC50 (Human rhinovirus sp. [18]): 0.0265 µg/mL (≈ 0.0694 µM)
EC50 (Human rhinovirus sp. [19]): 0.387 µg/mL (≈ 1.02 µM)

Results, then the molecule that gave them:

EC50 (Human rhinovirus sp. [1]): 0.014 µg/mL (≈ 0.0351 µM)
EC50 (Human rhinovirus sp. [2]): 0.104 µg/mL (≈ 0.261 µM)
SMILES: CCOc1nc2ccc(OCCC3CCN(c4ccc(C)nn4)CC3)cc2s1

EC50 (Human rhinovirus sp. [1]): 0.049 µg/mL (≈ 0.118 µM)
EC50 (Human rhinovirus sp. [2]): 0.165 µg/mL (≈ 0.398 µM)
SMILES: CCSc1nc2ccc(OCCC3CCN(c4ccc(C)nn4)CC3)cc2s1

EC50 (Human rhinovirus sp. [1]): 0.169 µg/mL (≈ 0.411 µM)
EC50 (Human rhinovirus sp. [2]): 0.102 µg/mL (≈ 0.248 µM)
SMILES: CCSc1nc2cc(OCCC3CCN(c4ccc(C)nn4)CC3)ccc2n1C

EC50 (Human rhinovirus sp. [1]): > 0.5 µg/mL
EC50 (Human rhinovirus sp. [2]): > 0.5 µg/mL
SMILES: Cc1ccc(N2CCC(CCOc3ccc4nc(C)oc4c3)CC2)nn1

EC50 (Human rhinovirus sp. [1]): 0.13 µg/mL (≈ 0.355 µM)
EC50 (Human rhinovirus sp. [2]): 0.144 µg/mL (≈ 0.393 µM)
SMILES: CCc1nc2cc(OCCC3CCN(c4ccc(C)nn4)CC3)ccc2o1

EC50 (Human rhinovirus sp. [1]): 0.05 µg/mL (≈ 0.125 µM)
EC50 (Human rhinovirus sp. [2]): 0.004 µg/mL (≈ 0.01 µM)
SMILES: CCSc1nc2ccc(OCCC3CCN(c4ccc(C)nn4)CC3)cc2o1

EC50 (Human rhinovirus sp. [1]): 0.099 µg/mL (≈ 0.269 µM)
EC50 (Human rhinovirus sp. [2]): 0.159 µg/mL (≈ 0.432 µM)
SMILES: COc1nc2cc(OCCC3CCN(c4ccc(C)nn4)CC3)ccc2o1

EC50 (Human rhinovirus sp. [1]): 0.006 µg/mL (≈ 0.0151 µM)
EC50 (Human rhinovirus sp. [2]): 0.002 µg/mL (≈ 0.00502 µM)
SMILES: CCSc1nc2cc(OCCC3CCN(c4ccc(C)nn4)CC3)ccc2o1

EC50 (Human rhinovirus sp. [3]): 0.00345 µg/mL (≈ 0.00902 µM)
EC50 (Human rhinovirus sp. [4]): 0.0003 µg/mL (≈ 0.000784 µM)
EC50 (Human rhinovirus sp. [5]): 0.0152 µg/mL (≈ 0.0398 µM)
EC50 (Human rhinovirus sp. [6]): 0.142 µg/mL (≈ 0.372 µM)
EC50 (Human rhinovirus sp. [7]): 0.00078 µg/mL (≈ 0.00204 µM)
EC50 (Human rhinovirus sp. [8]): 0.00874 µg/mL (≈ 0.0229 µM)
EC50 (Human rhinovirus sp. [9]): 0.00151 µg/mL (≈ 0.00395 µM)
EC50 (Human rhinovirus sp. [1]): 0.007 µg/mL (≈ 0.0183 µM)
EC50 (Human rhinovirus sp. [10]): > 0.25 µg/mL
EC50 (Human rhinovirus sp. [11]): 0.00388 µg/mL (≈ 0.0101 µM)
EC50 (Human rhinovirus sp. [12]): 0.0012 µg/mL (≈ 0.00314 µM)
EC50 (Human rhinovirus sp. [13]): 0.00432 µg/mL (≈ 0.0113 µM)
EC50 (Human rhinovirus sp. [14]): 0.00433 µg/mL (≈ 0.0113 µM)
EC50 (Human rhinovirus sp. [15]): 0.00772 µg/mL (≈ 0.0202 µM)
EC50 (Human rhinovirus sp. [16]): 0.00728 µg/mL (≈ 0.019 µM)
EC50 (Human rhinovirus sp. [17]): 0.00053 µg/mL (≈ 0.00139 µM)
EC50 (Human rhinovirus sp. [2]): 0.003 µg/mL (≈ 0.00784 µM)
EC50 (Human rhinovirus sp. [18]): 0.00116 µg/mL (≈ 0.00303 µM)
EC50 (Human rhinovirus sp. [19]): 0.00226 µg/mL (≈ 0.00591 µM)
SMILES: CCOc1nc2cc(OCCC3CCN(c4ccc(C)nn4)CC3)ccc2o1

EC50 (Human rhinovirus sp. [2]): 0.045 µg/mL (≈ 0.118 µM)
EC50 (Human rhinovirus sp. [20]): 0.023 µg/mL (≈ 0.0601 µM)
SMILES: CCOc1nc2ccc(OCCC3CCN(c4ccc(C)nn4)CC3)cc2o1

EC50 (Human rhinovirus sp. [1]): > 0.25 µg/mL
EC50 (Human rhinovirus sp. [2]): 0.086 µg/mL (≈ 0.209 µM)
SMILES: CCSc1nc2ccc(OCCC3CCN(c4ccc(C)nn4)CC3)cc2n1C
